From patent US20220264878A1, “HERBICIDAL COMPOSITION CONTAINING R-TYPE PYRIDYLOXY CARBOXYLIC ACID DERIVATIVE AND USE THEREOF” (Qingdao Kingagroot Chemical Compound Co., Ltd., priority 2019, published 2022)
Like-named read-outs stand apart in the source and are kept apart here.

How the values were obtained:
[1] = test system: Echinochloa caudate; test: Post-emergence foliage spray, pot culture, fresh weight inhibition (Tables 1-48, 51-98, 101-148; 24 days); assay type: in vivo; settings: for pest or weed control at 75 g/ha / pest or weed control at 150 g/ha / pest or weed control at 300 g/ha / pest or weed control at 600 g/ha / pest or weed control at 9.375 g/ha / pest or weed control at 18.75 g/ha / pest or weed control at 37.5 g/ha: Echinochloa, 576 h, read-out: Control effect (%) of B applied alone in corresponding dose
Protocol: (§1) The above weeds were cultivated by a pot culture method. […] Full and uniform weed seeds were selected, soaked in warm water at 25° C. for 6 hours, and germinated in a 28° C. biochemical incubator (darkness). The weed seeds that had just germinatedwere evenly placed on the surface of the soil and then covered with 0.5-1 cm soil according to the sizes of seeds.
(§2) The technical materials were all dissolved in acetone, and diluted with an aqueous solution containing 0.1% emulsifier Tween-80. The dilution is performed as required.
(§3) A ratio of the active ingredient A to the active ingredient B and amounts thereof in each group depends on the characteristics and toxicity of the two agents, as well as the main application purpose of a corresponding formulation. Based on the pre-tests in this study, the dosage of the active ingredient A and B applied alone and in combination were shown in the tables. Water containing the solvent and emulsifier same with the above groups but free of the agents was used as a blank control.
(§4) In the stage of weeds with 3˜4 leaves, the weeds were thinned out to maintain 15 weeds per pot and 45 weeds for each treatment, then continued to be cultured to 5˜6 leaves stage of grassy weeds, 6˜7 leaves stage of broadleaf weeds, and treated.
(§5) The well-cultured weeds were evenly placed on a platform with an area of 0.5 m^2, and a solution of agents was sprayed on the stems and leaves thereof by the 3WP-2000-type walking spray tower at a dosage of 450 kg/ha and at a spray pressure of 0.3 MPa. After all the solution was sprayed, the valve was closed. After 30 seconds, the door of the spray tower was opened, and the nutritional bowl was taken out. Then the valve was opened, and the spray tube was cleaned by spraying 50 ml of water.
(§6) A pot-culture method was employed. For the cultivation of weeds, please refer to the Section 1.1), and “Pesticide guidelines for laboratory bioactivity tests—herbicides”. As to a method for applying agents, please refer to the section 2.3.2), that is, a foliage treatment was employed. After the treatment, the weeds were routinely cultured in a greenhouse.
(§7) A method for investigating absolute number was employed, wherein whole seedlings of survival weeds were cut off with a blade along the soil surface, and the fresh weight of the weeds was weighed with an analytical balance. For dead weeds, the fresh weight thereof was zero.
(§8) Wherein, in the formula, X represented the fresh weight inhibition rate of the active ingredient A in a dosage of P, and Y represented the fresh weight inhibition rate of the active ingredient B in a dosage of Q.

[2] = test system: Echinochloa oryzoides; test: as above; assay type: in vivo; settings: for pest or weed control at 75 g/ha / pest or weed control at 150 g/ha / pest or weed control at 300 g/ha / pest or weed control at 600 g/ha / pest or weed control at 9.375 g/ha / pest or weed control at 18.75 g/ha / pest or weed control at 37.5 g/ha: Echinochloa oryzoides, 576 h, read-out: Control effect (%) of B applied alone in corresponding dose
Protocol: as §1, §2, §3, §4, §5, §6, §7, §8

Work on `CCC(=O)Nc1ccc(Cl)c(Cl)c1` [propanil] yielded a pest or weed control at 75 g/ha ([1]; propanil 75 g a.i./ha) of 3.8%, a pest or weed control at 150 g/ha ([1]; propanil 150 g a.i./ha) of 21.1% and a pest or weed control at 300 g/ha ([1]; propanil 300 g a.i./ha) of 36.4%. For the same molecule, the pest or weed control at 600 g/ha ([1]; propanil 600 g a.i./ha) was 52.5%, the pest or weed control at 75 g/ha ([2]; B 75 g a.i./ha) was 7.6% and the pest or weed control at 150 g/ha ([2]; B 150 g a.i./ha) was 19.9%. For the same molecule, the pest or weed control at 300 g/ha ([2]; B 300 g a.i./ha) was 37% and the pest or weed control at 600 g/ha ([2]; B 600 g a.i./ha) was 53.9%.

With `CS(=O)(=O)c1ccc(C(=O)C2C(=O)CCCC2=O)c(Cl)c1COCC1CCCO1` (centres unmarked) [tefuryltrione] the “Control effect (%) of B applied alone in corresponding dose” value (from here on “Control effect (%) of B applied alone”) ([1]; Table 81, 7.5 g a.i./ha) was 6.8%, the “Control effect (%) of B applied alone” value ([1]; Table 81, 15 g a.i./ha) was 13.1% and the “Control effect (%) of B applied alone” value ([1]; Table 81, 30 g a.i./ha) was 41.3%. The “Control effect (%) of B applied alone” value ([1]; Table 81, 60 g a.i./ha) was 65.4%, the “Control effect (%) of B applied alone” value ([2]; B 7.5 g a.i./ha) was 8.9% and the “Control effect (%) of B applied alone” value ([2]; B 15 g a.i./ha) was 18.8%. For the same molecule, the “Control effect (%) of B applied alone” value ([2]; B 30 g a.i./ha) was 46.1% and the “Control effect (%) of B applied alone” value ([2]; B 60 g a.i./ha) was 69.3%.

`CCCCOC(=O)[C@@H](C)Oc1ccc(Oc2ccc(C#N)cc2F)cc1` [cyhalofop-butyl] gave a pest or weed control at 9.375 g/ha [1] of 5.9%, a pest or weed control at 18.75 g/ha [1] of 11.4% and a pest or weed control at 37.5 g/ha [1] of 29.9%. The pest or weed control at 75 g/ha [1] was 69.6%, the pest or weed control at 9.375 g/ha [2] was 5.5% and the pest or weed control at 18.75 g/ha [2] was 15%. The pest or weed control at 37.5 g/ha [2] was 32.1% and the pest or weed control at 75 g/ha [2] was 63.5%.

With `COC(=O)[C@@H](C)Oc1ccc(Oc2ncc(C(F)(F)F)cc2Cl)cc1` [haloxyfop-P-methyl] the “Control effect (%) of B applied alone” value ([1]; haloxyfop-P-methyl 3.75 g a.i./ha) was 3.0%, the “Control effect (%) of B applied alone” value ([1]; haloxyfop-P-methyl 7.5 g a.i./ha) was 15.6% and the “Control effect (%) of B applied alone” value ([1]; haloxyfop-P-methyl 15 g a.i./ha) was 40.2%. The “Control effect (%) of B applied alone” value ([1]; haloxyfop-P-methyl 30 g a.i./ha) was 73.4%, the “Control effect (%) of B applied alone” value ([2]; B 3.75 g a.i./ha) was 7.9% and the “Control effect (%) of B applied alone” value ([2]; B 7.5 g a.i./ha) was 19.0%. For the same molecule, the “Control effect (%) of B applied alone” value ([2]; B 15 g a.i./ha) was 30.4% and the “Control effect (%) of B applied alone” value ([2]; B 30 g a.i./ha) was 66.9%.

`CN(C)C(=O)Nc1ccc(Cl)c(Cl)c1` [diuron] was tested, and the pest or weed control at 75 g/ha [1] was 3%, the pest or weed control at 150 g/ha [1] was 16.5% and the pest or weed control at 300 g/ha [1] was 28.6%. For the same molecule, the pest or weed control at 600 g/ha [1] was 52.2%, the pest or weed control at 75 g/ha [2] was 4.1% and the pest or weed control at 150 g/ha [2] was 14%. For the same molecule, the pest or weed control at 300 g/ha [2] was 31.3% and the pest or weed control at 600 g/ha [2] was 56.2%.

In the case of `COC(=O)c1ccccc1S(=O)(=O)NC(=O)Nc1nc(C)cc(C)n1` [sulfometuron-methyl], the pest or weed control at 9.375 g/ha [1] is reported as 3.8%, the pest or weed control at 18.75 g/ha [1] is reported as 13.9% and the pest or weed control at 37.5 g/ha [1] is reported as 24.6%. The pest or weed control at 75 g/ha [1] was 52.7%, the pest or weed control at 9.375 g/ha [2] was 3.2% and the pest or weed control at 18.75 g/ha [2] was 12.6%. For the same molecule, the pest or weed control at 37.5 g/ha [2] was 38% and the pest or weed control at 75 g/ha [2] was 53.8%.

In the case of `Cc1cc(C)n(Cc2c(S(C)(=O)=O)ccc(C(=O)c3c(C)nn(C)c3OC(=O)c3cn(C)nc3C)c2Cl)n1` [tripyrasulfone], the “Control effect (%) of B applied alone” value ([1]; Table 80, 18.75 g a.i./ha) is reported as 4.6%, the “Control effect (%) of B applied alone” value ([1]; Table 80, 37.5 g a.i./ha) is reported as 16.0% and the “Control effect (%) of B applied alone” value ([1]; Table 80, 75 g a.i./ha) is reported as 42.6%. The “Control effect (%) of B applied alone” value ([1]; Table 80, 150 g a.i./ha) was 74.3%, the “Control effect (%) of B applied alone” value ([2]; B 18.75 g a.i./ha) was 8.9% and the “Control effect (%) of B applied alone” value ([2]; B 37.5 g a.i./ha) was 18.0%. For the same molecule, the “Control effect (%) of B applied alone” value ([2]; B 75 g a.i./ha) was 44.6% and the “Control effect (%) of B applied alone” value ([2]; B 150 g a.i./ha) was 75.2%.
